Laboratory results from US20240293424A1, “CARNITINE-PALMITOYL-TRANSFERASE-1 (CPT-1) INHIBITORS FOR USE IN A METHOD OF PREVENTING OR TREATING SEPSIS IN A MAMMALIAN SUBJECT” (2N PHARMA APS, priority 2021, published 2024).

Key:
HEK293 cells = test: Fatty acid uptake assay using HEK293 cells; type: cell-based; conditions: Homo sapiens, racemic mixture, FIG. 1
Experimental: HEK293 cells were thawed and centrifuged at 400 g in 1 min, whereafter the supernatant was discarded. The cells were resuspended in DMEM+GlutaMax medium (cat #10566016, Invitrogen) containing 10% fetal calf serum (cat #10270-106, Invitrogen) and 1% penicillin/streptomycin (cat #15140-122, Life Technologies). HEK293 cells were seeded into a T25 flask and incubated at 37 degrees Celsius until 80% confluency. When the HEK293 cells reached confluency, cells were counted and seeded in a 96-well plate and with a volume of 10.000 cells/well in medium (as described above) and incubated overnight. Three wells were without cells serving as controls.
The cells were divided into two groups: 1) Example 1, and 2) Untreated. The fatty acid uptake assay (cat #408-100, BioVision) was carried out according to the protocol from BioVision. The only exception to the protocol was that the measurements in the PerkinElmer Multimode Plate Reader Enspire instrument was running overnight.
Statistics was performed in GraphPad Prism version 8.0. Repeated measure two-way ANOVA were conducted as the groups were tested multiple times followed by a multiple comparison Bonferroni post hoc test.

[1] = system: CLP-induced mouse model of sepsis; test: Cecal ligation and puncture (CLP)-induced mouse model of sepsis; type: in vivo; conditions: CLP mice, 5 mg/kg p.o. 1 h after onset of CLP, assessed 24 h after CLP
Excerpt: This study was be carried out on 10-week old, male C57BL/6 mice (n=5-10 per group) (Charles River Laboratories UK Ltd., Kent, UK) weighing 20-30 g kept under standard laboratory conditions. The animals were allowed to acclimatise to laboratory conditions for at least one week before undergoing experiments. Six mice were housed together in ventilated cages lined with absorbent bedding material. Tubes and chewing blocks were placed in all cages for environmental enrichment. All animals were subjected to 12-h light and dark cycles and the temperature was maintained at 19-23° C. All animals had access to a chow diet and water ad libitum. The cages were cleaned approximately every three days, with water being changed daily. […]
Ten-week-old, male C57BL/6 mice were injected with buprenorphine (0.05 mg/kg, i.p.). […] Temperature was monitored via a rectal probe and kept at 37° C. by a homeothermic mat. […] After 24 h, cardiac function was assessed by echocardiography in vivo. […] The organs (heart, lungs, liver, kidney, spleen) and blood was collected for further analysis to quantify organ injury/dysfunction. […]
Cardiac function in mice was assessed by echocardiography in vivo by means of the Vevo 3100 imaging system (VisualSonics, Toronto, Ontario, Canada). […] During echocardiography, the heart rate was recorded, and a rectal thermometer was recorded to measure core body temperature. […]

CC(=O)N1CCC(c2nc(-c3ccncc3)cs2)N(C(=O)COc2ccccc2)CC1 (single isomer, unassigned) [Example 1, 1-(4-acetyl-7-(4-(pyridin-4-yl)thiazol-2-yl)-1,4-diazepan-1-yl)-2-phenoxyethan-1-one]
IC50 (HEK293 cells): 300 nM | heart rate ([1]; FIG. 2A): maintained | pulmonary artery flow ([1]; FIG. 2G): maintained
